Measurements: PubChem BioAssay (NCI)
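A five-concentration, 48-hour dose response in 96-well plates underlies each endpoint, interpolated linearly between surrounding concentrations. Abbreviation: GI50, concentration required for 50% inhibition of growth. TGI: concentration producing complete growth inhibition.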

System: A549 NSCLC
Assay: growth of human tumour cells (NCI), 48 h

Compound | GI50 | TGI
CC(C)(C)OC(=O)N(CCCN(CCn1c2c(c3ccccc3c1=O)C(=O)c1ccccc1-2)C(=O)OC(C)(C)C)CCn1c2c(c3ccccc3c1=O)C(=O)c1ccccc1-2 | > 50 µM | > 50 µM
CCCCCCCCCCCCCCCCOP(=O)(O)Oc1ccc(/C=C\c2ccc(OP(=O)(O)OCCCCCCCCCCCCCCCC)cc2)cc1 |  | > 100 µM
O=c1[nH]c(=O)n(C2CC(O)C(CS)O2)cc1F (configuration not stated) |  | > 100 µM
CNC1C(=O)C(C)C(O)(C(CC(C)C(O)/C=C/C=C/CNC(=O)C(C)(C)C(O)\C(C)=C/C=C\C=C\Cc2cnc(C)o2)OC)C12C(=O)OC2COC (configuration not stated) (tested in a mixture with another compound) |  | > 100 µM
CCN(CC)C(=O)C/C(C)=N/NC(=O)c1ccncc1 |  | > 100 µM
Cc1c2c(nn1-c1ccc(S(=O)(=O)/N=C3\SCC(=O)N3C(=O)c3ccccc3)cc1)-c1ccccc1CC2 | > 100 µM | > 100 µM
CN(C)C(=S)/N=c1\ss/c(=N\C(=S)N(C)C)n1-c1ccc2c(c1)OCO2 |  | > 100 µM
COC(=O)C(=O)C(C(=O)C(=O)Nc1ccc(C)cc1C)c1nc2ccccc2[nH]c1=O (configuration not stated) |  | > 100 µM
O=C(O)C(Sc1ccc(Cl)cc1)Sc1ccc(Cl)cc1 |  | > 100 µM
CC[C@H](C)[C@H](NC(=O)[C@H]1CCCCN1C)C(=O)N(C)[C@H](CCc1nc(C(=O)N[C@@H](Cc2ccccc2)C[C@H](C)C(=O)OC)cs1)C(C)C | 1.1 µM | > 25 µM
Nc1c(-c2ccc(Br)cc2)[n+]([O-])c2ccccc2[n+]1[O-] |  | > 100 µM
C#CC[C@]12CC(=O)CC[C@H]1CC(=O)C2 |  | > 100 µM
CNC=O.[O]=[Ge].[O]=[Ge].[O]=[Ge].[O]=[Ge][OH].[O]=[Ge][OH] |  | > 100 µM
N#CCCN(c1ccc(/C=C2\N=C(c3ccc(Cl)cc3)OC2=O)cc1)S(=O)(=O)c1ccccc1 |  | > 100 µM
COc1ccc(C2CC(=O)c3c(OC)cc(OC)cc3O2)cc1 (configuration not stated) | > 100 µM | > 100 µM
COC(=O)C1=C(c2ccc3c(c2)OCO3)O[C@H](c2ccc3c(c2)OCO3)[C@H]1COC(C)=O |  | > 100 µM
CC(C)=[CH][Sb]([Br])([CH]=C(C)C)([CH]=C(C)C)[CH]=C(C)C | 19.1 µM | > 100 µM
CCOC(=O)[C@H]1Nc2ccc(C)cc2C2c3ccccc3CC21 (some centres not stated) |  | > 100 µM

Compound | GI50 | TGI
COc1cc([N+](=O)[O-])ccc1NC(=O)C(F)(F)F |  | > 100 µM
N#CCCN(CCC#N)c1ccc(/C=C2\N=C(CN3C(=O)c4ccccc4C3=O)OC2=O)cc1 |  | > 100 µM
CSc1nc(NC2OC(COC(C)=O)C(OC(C)=O)C(OC(C)=O)C2OC(C)=O)c2c(OC(C)=O)c(C)c(=O)oc2n1 (configuration not stated) |  | > 100 µM
O=C(O)C1C(C(=O)O)C(C(=O)O)C1C(=O)O (configuration not stated) |  | > 100 µM
COc1ccc(C(=O)O)c(Cc2cccc3ccccc23)c1 |  | > 100 µM
CC#CC(=O)Nc1ccccc1CC(c1c[nH]c2ccccc12)c1c[nH]c2ccccc12 |  | 57.5 µM
CN1C(NC(=O)c2ccc(Cl)nc2)=NS(=O)(=O)c2cc(Cl)ccc21 | > 100 µM | > 100 µM
C[C@]12CC[C@@H]3c4ccc(Oc5nc(N6CC6)nc(N6CC6)n5)cc4CC[C@H]3[C@@H]1CCC2=O | 1.5 µM | 12.8 µM
N#Cc1cnsc1 |  | > 100 µM
CCOC(=O)NC(=O)c1cn(CCCOC(=O)NCCCCCCNC(=O)OCCCn2c(=O)c(C(=O)NC(=O)OCC)cn(C)c2=O)c(=O)n(C)c1=O |  | > 100 µM
COc1ccc2cc(C(=O)/C=C/c3cccc(OC)c3OC)ccc2c1 | 7.11 µM | 24.8 µM
CCCCn1c(-c2ccc(C(=O)O/N=C(\N)c3ccc(OC)cc3)cc2)nc(-c2ccccc2)c1-c1ccccc1 | 1.21 µM | 3.75 µM
CC(C)=CC(=O)N1CCN(C(=O)C=C(C)C)CC1 |  | > 100 µM
CCCCC/C=C/C/C=C/CCCCCCCC1=NC(C)(C)CN1C(C)C | 1.77 µM | 3.2 µM
C[C@]12CC[C@@H]3c4ccc(O)cc4CC[C@H]3[C@@H]1CC[C@@H]2NS(=O)(=O)c1ccc(C(F)(F)F)cc1 | 2.05 µM | 4.98 µM
CCc1cccc(C)c1NC(C)=O |  | > 100 µM
O=C(CC(=O)N1N=C(c2ccccc2)C(N=Nc2ccc(Cl)cc2)C1=O)Nc1ccccc1Cl (configuration not stated) |  | > 100 µM

System: HL-60(TB) leukemia
Assay: growth of human tumour cells (NCI), 48 h

Compound | GI50 | TGI
CC(C)(C)OC(=O)N(CCCN(CCn1c2c(c3ccccc3c1=O)C(=O)c1ccccc1-2)C(=O)OC(C)(C)C)CCn1c2c(c3ccccc3c1=O)C(=O)c1ccccc1-2 | 14.1 µM | > 50 µM
CCCCCCCCCCCCCCCCOP(=O)(O)Oc1ccc(/C=C\c2ccc(OP(=O)(O)OCCCCCCCCCCCCCCCC)cc2)cc1 |  | 53.1 µM
O=c1[nH]c(=O)n(C2CC(O)C(CS)O2)cc1F (configuration not stated) |  | > 100 µM
CNC1C(=O)C(C)C(O)(C(CC(C)C(O)/C=C/C=C/CNC(=O)C(C)(C)C(O)\C(C)=C/C=C\C=C\Cc2cnc(C)o2)OC)C12C(=O)OC2COC (configuration not stated) (tested in a mixture with another compound) |  | 3.48 µM
CCN(CC)C(=O)C/C(C)=N/NC(=O)c1ccncc1 |  | > 100 µM
